# ChEMBL document CHEMBL1127385, “Synthesis and diuretic activity of alkyl- and arylguanidine analogs of N,N'-dicyclohexyl-4-morpholinecarboxamidine in rats and dogs” (J Med Chem, 1994)
# Legend:
# Rattus norvegicus [1] = experiment: Ratio of Total electrolytic excretion of sodium and potassium in urine of rats after peroral administration of 50.8 uM/Kg of drug; format: ADME, organism-based; conditions: in vivo, po
# Rattus norvegicus [2] = experiment: Total electrolytic excretion of potassium in urine of rats after peroral administration of 68.1 uM/Kg of drug; format: ADME, organism-based; conditions: in vivo, po
# Canis familiaris [3] = species on record: Canis familiaris; experiment: Systemic cardio vascular Hemodynamics of cardiac index was measured in Beagle dogs after giving the dose of MNX; format: functional, Canis lupus familiaris, Heart
# Canis familiaris [4] = species on record: Canis familiaris; experiment: Tissue vascular resistance of large intestine was measured in Beagle dogs after giving the dose of MNX; format: functional, Canis lupus familiaris
# Rattus norvegicus [5] = experiment: Total electrolytic excretion of potassium in urine of rats after peroral administration of 50.8 uM/Kg of drug; format: ADME, organism-based; conditions: in vivo, po
# Canis familiaris [6] = experiment: Tested for the diuretic activity by measuring the urinary volume after peroral administering 68.1 uM/Kg of drug in dogs; format: ADME, organism-based, Canis lupus familiaris, Urine; conditions: dog, in vivo, po
# Canis familiaris [7] = species on record: Canis familiaris; experiment: Systemic cardio vascular Hemodynamics of heart rate was measured in Beagle dogs in pretreatment control group; format: functional, Canis lupus familiaris
# Rattus norvegicus [8] = experiment: Tested for the diuretic activity by measuring the urinary volume after peroral administering 102 uM/Kg of drug in rats; format: ADME, organism-based, Urine; conditions: in vivo, po
# Canis familiaris [9] = experiment: Total electrolytic excretion of chlorine in urine of dogs after peroral administration of 68.1 uM/Kg of drug; format: ADME, organism-based, Canis lupus familiaris; conditions: dog, in vivo, po
# Canis familiaris [10] = experiment: Total electrolytic excretion of sodium in urine of dogs after peroral administration of 50.8 uM/Kg of drug; format: ADME, organism-based, Canis lupus familiaris; conditions: dog, in vivo, po
# Canis familiaris [11] = experiment: Tested for the diuretic activity by measuring the urinary volume after peroral administering 102 uM/Kg of drug in dogs; format: ADME, organism-based, Canis lupus familiaris, Urine; conditions: dog, in vivo, po
# Canis familiaris [12] = species on record: Canis familiaris; experiment: Systemic cardio vascular Hemodynamics of heart rate was measured in Beagle dogs after giving the dose of MNX plus the drug; format: functional, Canis lupus familiaris
# Canis familiaris [13] = species on record: Canis familiaris; experiment: Tissue vascular resistance of pancreas was measured in Beagle dogs before treatment; format: functional, Canis lupus familiaris
# Canis familiaris [14] = experiment: Total electrolytic excretion of chlorine in urine of dogs after intravenous administration of 3.03 uM/Kg of drug; format: ADME, organism-based, Canis lupus familiaris; conditions: dog, in vivo
# Canis familiaris [15] = species on record: Canis familiaris; experiment: Tissue vascular resistance of right atrium was measured in Beagle dogs after giving the dose of MNX; format: functional, Canis lupus familiaris, Cardiac atrium
# Canis familiaris [16] = species on record: Canis familiaris; experiment: Tissue vascular resistance of large intestine was measured in Beagle dogs before treatment; format: functional, Canis lupus familiaris
# Canis familiaris [17] = experiment: Total electrolytic excretion of chlorine in urine of dogs after peroral administration of 34.1 uM/Kg of drug; format: ADME, organism-based, Canis lupus familiaris; conditions: dog, in vivo, po
# Canis familiaris [18] = species on record: Canis familiaris; experiment: Systemic cardio vascular Hemodynamics of stroke index was measured in Beagle dogs after giving the dose of MNX; format: functional, Canis lupus familiaris, Heart
# Rattus norvegicus [19] = experiment: Tested for the diuretic activity by measuring the urinary volume after peroral administering 341 uM/Kg of drug in rats; format: ADME, organism-based, Urine; conditions: in vivo, po
# Canis familiaris [20] = species on record: Canis familiaris; experiment: Systemic cardio vascular Hemodynamics of total peripheral resistance was measured in Beagle dogs after giving the dose of MNX plus the drug; format: functional, Canis lupus familiaris, Heart
# Canis familiaris [21] = species on record: Canis familiaris; experiment: Systemic cardio vascular Hemodynamics of stroke index was measured in Beagle dogs in pretreatment control group; format: functional, Canis lupus familiaris, Heart
structure (smiles),measurement,setting,value
C1CCC(N=C(NC2CCCCC2)N2CCOCC2)CC1,Ratio,Rattus norvegicus [1],6.1
same,Excretion K+,Rattus norvegicus [2],2 m equiv
same,CI,Canis familiaris [3],260 mL/min/kg
same,TVR,Canis familiaris [4],116 mmHg·min·g/mL
same,Excretion K+,Rattus norvegicus [5],1.9 m equiv
same,V,Canis familiaris [6],91 mL
same,HR,Canis familiaris [7],87 beats min-1
same,V,Rattus norvegicus [8],10 mL
same,Excretion Cl-,Canis familiaris [9],12.3 m equiv
same,Excretion Na+,Canis familiaris [10],11.9 m equiv
same,V,Canis familiaris [11],154 mL
same,HR,Canis familiaris [12],132 beats min-1
same,TVR,Canis familiaris [13],118 mmHg·min·g/mL
same,Excretion Cl-,Canis familiaris [14],5.4 m equiv
same,TVR,Canis familiaris [15],37 mmHg·min·g/mL
same,TVR,Canis familiaris [16],264 mmHg·min·g/mL
same,Excretion Cl-,Canis familiaris [17],9.4 m equiv
same,SI,Canis familiaris [18],1.9 ml beat-1 kg-1
same,V,Rattus norvegicus [19],10.2 mL
same,TPR,Canis familiaris [20],0.91 mmHg·min·kg/mL
same,SI,Canis familiaris [21],2.2 ml beat-1 kg-1
